Experiments:
Type in all cases: cell-based
[1] = target: T1, human Nav1.7 (hSCN9A) (Homo sapiens, UniProt Q15858); assay: Electrophysiology assay for Navs, whole cell patch clamp, human Nav1.7 (hSCN9A) expressing CHO cells; conditions: Kinact, read-out: activity (Ki) against Nav1.7, dissociation constant for the inactivated state
T1 construct: expressed in transfected cells; host or cells: CHO
Protocol: Electrophysiology Assay for Navs
Whole cell patch clamp recording is used to assess the efficacy or selectivity of Na channel blocker on human Nav1.3 (hSCN3A) expressing HEK293 cells or human Nv1.7 (hSCN9A) expressing CHO cells. Human Nav1.3 expressing HEK293 cells are grown in growth media which contain: Dulbecco's […] (DMEM), 10% heat-inactivated fetal bovine serum (FBS) (Hyclone Laboratories Inc), 100 microgram/mL Penicillin/100 U/mL Streptomycin, 150 microgram/mL Zeocin, 3 microgram/mL Geneticin. Human Nav1.7 expressing CHO cells are grown in growth media which comprised: HAM/F-12, 9% heat-inactivated FBS (Hyclone Laboratories Inc) and 100 microgram/mL Penicillin/100 U/mL Streptomycin, 100 microgram/mL Hygromycin.
Na channel expressing cells are dissociated by 0.05% trypsine-EDTA, and then seeded on cover glass for 24 to 48 hr. […]
The normalized steady-state inactivation curve is constructed using 2 sec (for vehicle) or 60 sec (for drugs) conditioning pulse to different potentials followed immediately by the test pulse to −10 mV. […] The affinity of drugs to resting state of Na channels (Kresting or Kr) is assessed by 30 msec test pulse from a negative holding potential of −120 or −130 mV, where virtually all channels are in the resting state. Kr value is calculated by a conventional 1:1 binding model: Kresting(Kr)={[drug]Imax,drug/(Imax,control−Imax,drug)} […]

[2] = target: T2, human Nav1.5 (Homo sapiens, UniProt Q14524); assay: FRET assay, human Nav1.5 channels (HEK293, EFS on FDSS); conditions: read-out: activity (IC50) against Nav1.5
T2 construct: expressed in transfected cells; host or cells: HEK293
Protocol: (§1) The ability of the amide derivatives of the formula (I) to inhibit the Nav1.3, Nav1.7 and Nav1.5 channels is measured by Fluorescence Resonance Energy Transfer (FRET) assay and electrophysiology assay described below.
(§2) This screen is used to determine the effects of compounds on human Nav1.3, human Nav1.7, and human Nav1.5 channels, utilizing electrical field stimulation (EFS) system in 96-well plate format on FDSS (Hamamatsu Photonics) platform. The change of membrane potential is monitored with FRET dye pair, oxonol (DiSBAC2(3)) and coumarin (CC2-DMPE).
(§3) Each HEK293 cells expressing human Nav1.3 channels and HEK293 cells expressing human Nav1.5 channels are grown in T225 flasks, in a 5% CO2 humidified incubator to about 80% confluence. Media composition consists of Dulbecco's Modified Eagle Medium (high glucose), 10% FCS, 100 units/mL Penicillin, 100 microgram/mL Streptomycin and 500 microgram/mL Geneticin™. […]
(§4) The data are analyzed and reported as normalized ratios of intensities measured at […]. […]
(§5) This analysis is performed using a computerized specific program designed for FDSS generated data. Fluorescence ratio values are plotted using XLfit™ to determine an IC50 value for each compound.

[3] = target: T3, human Nav1.3 (Homo sapiens, UniProt Q9NY46); assay: FRET assay, human Nav1.3 channels (HEK293, EFS on FDSS); conditions: read-out: activity (IC50) against Nav1.3
T3 construct: expressed in transfected cells; host or cells: HEK293
Protocol: as §1, §2, §3, §4, §5

[4] = target: T4, human Nav1.7 (Homo sapiens, UniProt Q15858); assay: FRET assay, human Nav1.7 channels (CHO, EFS on FDSS); conditions: read-out: activity (IC50) against Nav1.7
T4 construct: expressed in transfected cells; host or cells: CHO
Protocol: as §1, §2
CHO cells expressing human Nav1.7 channels are grown in T225 flasks, in a 5% CO2 humidified incubator to about 80% confluence. Media composition consists of HAM/F12 with Glutamax I, 10% FCS, 100 units/mL Penicillin and 100 microgram/mL Hygromycin. […]
as §4, §5

T2 sequence (Q14524 whole entry): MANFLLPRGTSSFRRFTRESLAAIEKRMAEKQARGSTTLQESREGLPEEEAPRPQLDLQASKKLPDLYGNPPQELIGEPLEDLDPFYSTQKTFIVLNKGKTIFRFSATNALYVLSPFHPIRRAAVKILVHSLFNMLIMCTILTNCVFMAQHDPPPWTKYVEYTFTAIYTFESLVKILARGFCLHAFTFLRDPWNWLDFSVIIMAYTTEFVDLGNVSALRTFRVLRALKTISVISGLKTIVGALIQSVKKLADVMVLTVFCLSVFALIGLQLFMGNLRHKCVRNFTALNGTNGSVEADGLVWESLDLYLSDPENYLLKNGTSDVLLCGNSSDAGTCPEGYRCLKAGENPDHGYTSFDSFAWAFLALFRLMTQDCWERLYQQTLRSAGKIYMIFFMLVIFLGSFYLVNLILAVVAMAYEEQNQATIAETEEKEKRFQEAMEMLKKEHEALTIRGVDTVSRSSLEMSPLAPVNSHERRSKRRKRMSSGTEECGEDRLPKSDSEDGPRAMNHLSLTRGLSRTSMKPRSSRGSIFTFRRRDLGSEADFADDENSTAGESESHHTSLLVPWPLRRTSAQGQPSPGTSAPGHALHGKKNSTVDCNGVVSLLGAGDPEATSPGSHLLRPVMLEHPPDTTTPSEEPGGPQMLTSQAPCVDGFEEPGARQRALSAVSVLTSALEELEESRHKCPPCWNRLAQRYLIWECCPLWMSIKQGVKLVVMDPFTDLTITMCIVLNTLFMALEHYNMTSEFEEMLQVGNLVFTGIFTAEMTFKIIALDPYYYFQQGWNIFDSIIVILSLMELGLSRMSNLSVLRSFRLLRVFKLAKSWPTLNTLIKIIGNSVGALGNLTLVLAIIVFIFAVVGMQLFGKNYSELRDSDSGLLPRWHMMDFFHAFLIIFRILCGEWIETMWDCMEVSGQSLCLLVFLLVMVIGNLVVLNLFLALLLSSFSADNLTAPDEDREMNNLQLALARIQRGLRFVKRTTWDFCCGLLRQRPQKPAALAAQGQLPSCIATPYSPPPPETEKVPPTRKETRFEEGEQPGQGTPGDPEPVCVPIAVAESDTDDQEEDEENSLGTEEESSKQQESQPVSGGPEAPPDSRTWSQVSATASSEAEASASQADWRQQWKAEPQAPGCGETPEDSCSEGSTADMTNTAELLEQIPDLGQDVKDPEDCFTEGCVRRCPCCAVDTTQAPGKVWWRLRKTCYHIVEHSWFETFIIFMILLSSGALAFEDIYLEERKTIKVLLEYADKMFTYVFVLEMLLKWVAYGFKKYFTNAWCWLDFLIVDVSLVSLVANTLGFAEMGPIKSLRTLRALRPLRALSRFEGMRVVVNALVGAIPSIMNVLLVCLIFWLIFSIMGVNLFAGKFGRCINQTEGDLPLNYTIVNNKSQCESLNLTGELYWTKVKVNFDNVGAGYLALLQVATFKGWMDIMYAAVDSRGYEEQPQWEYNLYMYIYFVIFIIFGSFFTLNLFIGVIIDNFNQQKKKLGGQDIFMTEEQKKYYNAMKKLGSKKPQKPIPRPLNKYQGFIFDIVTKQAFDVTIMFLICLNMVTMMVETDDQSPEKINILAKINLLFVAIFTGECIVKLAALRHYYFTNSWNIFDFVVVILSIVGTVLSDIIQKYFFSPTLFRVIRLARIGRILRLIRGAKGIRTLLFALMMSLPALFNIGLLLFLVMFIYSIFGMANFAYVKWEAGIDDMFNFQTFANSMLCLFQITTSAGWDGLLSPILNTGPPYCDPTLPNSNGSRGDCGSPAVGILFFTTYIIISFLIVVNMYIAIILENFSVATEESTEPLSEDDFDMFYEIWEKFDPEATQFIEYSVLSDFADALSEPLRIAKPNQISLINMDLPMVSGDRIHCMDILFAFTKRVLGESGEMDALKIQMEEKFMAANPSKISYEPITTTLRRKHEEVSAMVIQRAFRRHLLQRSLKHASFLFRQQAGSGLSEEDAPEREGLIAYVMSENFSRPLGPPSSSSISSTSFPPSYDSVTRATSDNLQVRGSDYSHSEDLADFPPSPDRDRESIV
T4 sequence (Q15858 whole entry): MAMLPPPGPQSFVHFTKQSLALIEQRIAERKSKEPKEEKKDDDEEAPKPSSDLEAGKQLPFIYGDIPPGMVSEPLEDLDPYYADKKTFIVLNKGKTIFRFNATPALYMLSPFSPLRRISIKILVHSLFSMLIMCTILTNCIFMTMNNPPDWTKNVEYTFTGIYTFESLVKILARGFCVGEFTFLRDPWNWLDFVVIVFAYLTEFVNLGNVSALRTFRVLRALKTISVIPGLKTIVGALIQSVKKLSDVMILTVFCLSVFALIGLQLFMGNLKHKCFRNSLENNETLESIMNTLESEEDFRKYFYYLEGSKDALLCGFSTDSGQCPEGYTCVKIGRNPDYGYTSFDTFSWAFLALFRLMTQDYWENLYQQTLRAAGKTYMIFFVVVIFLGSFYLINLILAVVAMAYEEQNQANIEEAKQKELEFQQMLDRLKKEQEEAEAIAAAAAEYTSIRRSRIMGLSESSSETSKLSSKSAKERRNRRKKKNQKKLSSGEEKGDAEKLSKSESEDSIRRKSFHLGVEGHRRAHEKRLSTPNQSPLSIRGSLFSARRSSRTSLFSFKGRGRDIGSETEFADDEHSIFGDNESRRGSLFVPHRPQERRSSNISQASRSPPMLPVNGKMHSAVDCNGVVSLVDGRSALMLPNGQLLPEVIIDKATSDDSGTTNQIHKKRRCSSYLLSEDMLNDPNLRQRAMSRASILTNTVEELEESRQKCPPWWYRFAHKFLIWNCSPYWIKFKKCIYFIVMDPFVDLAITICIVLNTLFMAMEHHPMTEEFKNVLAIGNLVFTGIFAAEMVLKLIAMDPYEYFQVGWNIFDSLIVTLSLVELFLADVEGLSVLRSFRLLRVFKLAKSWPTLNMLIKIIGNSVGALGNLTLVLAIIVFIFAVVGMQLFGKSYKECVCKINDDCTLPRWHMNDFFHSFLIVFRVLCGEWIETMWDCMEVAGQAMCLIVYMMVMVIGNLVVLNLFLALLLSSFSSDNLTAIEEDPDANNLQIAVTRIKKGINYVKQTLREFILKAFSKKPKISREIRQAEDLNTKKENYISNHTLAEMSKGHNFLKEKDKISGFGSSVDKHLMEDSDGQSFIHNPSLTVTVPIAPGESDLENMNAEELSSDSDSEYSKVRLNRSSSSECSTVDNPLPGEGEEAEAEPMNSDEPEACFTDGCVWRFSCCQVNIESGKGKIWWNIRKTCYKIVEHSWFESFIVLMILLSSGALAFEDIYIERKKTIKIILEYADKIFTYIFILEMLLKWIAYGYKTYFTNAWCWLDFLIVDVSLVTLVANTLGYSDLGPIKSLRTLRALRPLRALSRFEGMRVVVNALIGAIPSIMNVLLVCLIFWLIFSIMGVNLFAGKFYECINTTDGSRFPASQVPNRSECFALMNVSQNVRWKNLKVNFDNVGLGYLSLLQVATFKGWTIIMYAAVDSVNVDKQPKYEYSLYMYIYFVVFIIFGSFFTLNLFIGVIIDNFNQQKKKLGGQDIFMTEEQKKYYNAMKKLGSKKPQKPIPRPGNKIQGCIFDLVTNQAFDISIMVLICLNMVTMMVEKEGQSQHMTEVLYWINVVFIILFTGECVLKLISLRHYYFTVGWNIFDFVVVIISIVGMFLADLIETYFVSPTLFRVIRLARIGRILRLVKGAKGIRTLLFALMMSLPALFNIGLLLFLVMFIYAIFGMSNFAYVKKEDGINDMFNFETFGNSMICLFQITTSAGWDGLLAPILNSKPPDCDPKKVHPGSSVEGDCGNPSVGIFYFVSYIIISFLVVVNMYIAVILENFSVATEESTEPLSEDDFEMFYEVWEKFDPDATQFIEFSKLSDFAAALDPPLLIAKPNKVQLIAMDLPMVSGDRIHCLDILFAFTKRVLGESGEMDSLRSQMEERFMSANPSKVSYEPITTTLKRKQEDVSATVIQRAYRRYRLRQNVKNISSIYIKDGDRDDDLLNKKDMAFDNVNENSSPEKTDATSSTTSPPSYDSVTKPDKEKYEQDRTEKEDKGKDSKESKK
T1 sequence (Q15858 whole entry): as above

Ki [1] [nM] | IC50 [3] [nM] | IC50 [4] [nM] | Structure (SMILES) | IC50 [2] [nM]
950 |  |  | CC(=O)Nc1cc(C(C)NC(=O)c2ccc(OCC(F)(F)F)cn2)cc(C)n1 (single isomer, unassigned) [Example 29, N-(1-(2-acetamido-6-methylpyridin-4-yl)ethyl)-5-(2,2,2-trifluoroethoxy) picolinamide] | 
 | 510 | 1000 | CCC(=O)Nc1cc(CNC(=O)c2ccc(OCC(F)(F)F)nc2)cc(C)n1 [Example 12, N-((2-methyl-6-propionamidopyridin-4-yl)methyl)-6-(2,2,2-trifluoroethoxy) nicotinamide] | > 30000

— patent US9701658B2, “Amide derivatives as TTX-S blockers” (RaQualia Pharma Inc., priority 2012, dated 2017)
